pIC50: −log10 of the molar value.
The molecules below were run against T1, PI3K-Alpha kinase H1047R mutant (Homo sapiens, UniProt P42336, H1047R) (assay: PI3K-Alpha Kinase (PIK3CA) Activity, H1047R Mutant In Vitro Cell Based Assay (MDA-MB-453 cells, AlphaLisa SureFire Ultra)). Details: 0% FBS, 3 hours treatment, relative IC50.
T1 construct: host or cells: MDA-MB-453
T1 sequence (P42336 whole entry H1047R): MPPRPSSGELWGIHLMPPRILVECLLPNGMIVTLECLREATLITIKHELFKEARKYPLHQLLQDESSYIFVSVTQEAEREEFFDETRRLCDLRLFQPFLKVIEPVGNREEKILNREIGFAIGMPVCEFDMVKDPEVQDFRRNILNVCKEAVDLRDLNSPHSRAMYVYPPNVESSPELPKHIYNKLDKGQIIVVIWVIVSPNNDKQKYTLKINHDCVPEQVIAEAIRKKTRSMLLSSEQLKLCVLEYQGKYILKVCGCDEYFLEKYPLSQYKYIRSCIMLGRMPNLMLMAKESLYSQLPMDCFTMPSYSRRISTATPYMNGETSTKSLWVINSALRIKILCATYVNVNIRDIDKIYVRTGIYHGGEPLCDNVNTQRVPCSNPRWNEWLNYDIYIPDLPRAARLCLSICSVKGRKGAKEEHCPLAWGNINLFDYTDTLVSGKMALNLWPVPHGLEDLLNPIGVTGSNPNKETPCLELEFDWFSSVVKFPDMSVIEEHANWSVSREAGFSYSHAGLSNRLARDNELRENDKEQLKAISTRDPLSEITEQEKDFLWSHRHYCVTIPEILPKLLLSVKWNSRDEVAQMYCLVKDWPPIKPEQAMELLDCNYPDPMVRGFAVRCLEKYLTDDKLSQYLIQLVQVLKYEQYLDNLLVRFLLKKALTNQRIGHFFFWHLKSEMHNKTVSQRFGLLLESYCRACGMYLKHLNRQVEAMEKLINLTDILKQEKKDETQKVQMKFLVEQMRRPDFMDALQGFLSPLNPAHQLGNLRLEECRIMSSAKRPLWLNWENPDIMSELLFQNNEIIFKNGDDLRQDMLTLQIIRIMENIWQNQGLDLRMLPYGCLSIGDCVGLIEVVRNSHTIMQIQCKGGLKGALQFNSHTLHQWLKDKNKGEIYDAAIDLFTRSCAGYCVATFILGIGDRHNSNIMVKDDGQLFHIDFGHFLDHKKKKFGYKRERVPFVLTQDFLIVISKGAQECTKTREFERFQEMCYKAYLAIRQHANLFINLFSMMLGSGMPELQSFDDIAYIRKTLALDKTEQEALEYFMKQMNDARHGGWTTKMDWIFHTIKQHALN
T1 sequence (P27986 whole entry partner): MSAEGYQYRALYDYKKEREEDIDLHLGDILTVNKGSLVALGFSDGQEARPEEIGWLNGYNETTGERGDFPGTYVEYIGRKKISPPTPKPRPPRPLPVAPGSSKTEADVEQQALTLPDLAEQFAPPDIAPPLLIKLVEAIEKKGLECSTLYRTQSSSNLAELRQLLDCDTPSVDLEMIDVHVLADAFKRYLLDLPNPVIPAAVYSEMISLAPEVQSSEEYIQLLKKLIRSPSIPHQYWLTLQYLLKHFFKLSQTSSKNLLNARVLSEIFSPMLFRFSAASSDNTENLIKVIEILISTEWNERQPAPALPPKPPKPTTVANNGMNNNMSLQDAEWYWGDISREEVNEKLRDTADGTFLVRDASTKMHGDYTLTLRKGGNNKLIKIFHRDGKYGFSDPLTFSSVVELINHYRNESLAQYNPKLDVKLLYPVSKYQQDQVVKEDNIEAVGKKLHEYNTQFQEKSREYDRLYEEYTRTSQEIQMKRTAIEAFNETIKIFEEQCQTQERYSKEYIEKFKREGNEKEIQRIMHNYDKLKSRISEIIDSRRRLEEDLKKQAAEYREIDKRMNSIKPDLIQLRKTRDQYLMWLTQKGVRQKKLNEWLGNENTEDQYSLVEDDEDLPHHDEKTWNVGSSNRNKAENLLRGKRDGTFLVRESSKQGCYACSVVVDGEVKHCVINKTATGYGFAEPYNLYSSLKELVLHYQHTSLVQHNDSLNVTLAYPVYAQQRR
Method: PI3K-Alpha Kinase (PIK3CA) Activity, H1047R Mutant In Vitro Cell Based Assay and Determining IC50 Values for Inhibitors
The MDA-MB-453 (ATCC-HTB-131) cell line was obtained from the American Type Culture Collection (Manassas, VA). Cells were maintained in Dulbecco's Modified Eagle Media (DMEM, Gibco 11965-092) supplemented with 10% Fetal Bovine Serum, heat inactivated (FBS HI, Gibco 10082-147), 1× non-essential amino acids (NEAA, Gibco 11140-050), and 1 mM sodium pyruvate (Gibco 11360-070). Cultures were maintained in a humidified incubator at 37° C. under 5% CO2/95% air.
For compound testing in 0% FBS, MDA-MB-453 cells were seeded at a density of 1.5×10^4 cells per well in white 384-well plates in 20 μl of Minimum Essential Media (MEM) assay media with 1×NEAA, 1 mM sodium pyruvate, and 1 μg/mL human insulin (Sigma I9278). Compounds dissolved in 10 mM stock solutions in DMSO were serially diluted 1:3 in DMSO to generate a 10-point dilution series and plated using an acoustic liquid handler system (Echo 550 Series Liquid Handler, Labcyte). A 5× intermediate compound dilution plate in MEM with 1×NEAA and 1 mM sodium pyruvate (150 μM starting compound concentration in 1.5% DMSO) was then prepared. Five μl of the intermediate serially diluted compounds were added to the cell plate to final concentrations ranging from […] in 0.3% DMSO. 0.3% DMSO alone was used to establish the maximum (MAX) signal and GDC-0032 at a final concentration of 1 μM was used as a reference compound for the minimum (MIN) signal. After 3 hours treatment, the medium was removed, and the cells lysed in 10 μL of 1× SureFire Lysis buffer with shaking for 10 minutes at room temperature. The Acceptor Mix (Reaction Buffer 1+Reaction Buffer 2+Activation Buffer+SureFire Ultra Acceptor Beads) was prepared by diluting Activation buffer 25-fold in combined Reaction Buffer 1 and Reaction Buffer 2. The Acceptor beads were diluted 50-fold in the combined Reaction Buffers. Five μL of Acceptor Mix was added to each well, the plate was sealed and covered with foil and incubated for 1 hour at room temperature. The Donor Mix (dilution buffer+SureFire Ultra Donor Beads) was prepared by diluting Donor Beads 50-fold in dilution buffer. Five μL of the Donor Mix was added to each well and the plate sealed and covered with foil and incubated for 1 hour at room temperature in the dark. The plates were read on a Neo2 plate reader instrument from Biotek using standard AlphaLisa settings. Compounds were tested in duplicate and the average % inhibition at each compound concentration was used to generate a single dose response curve. The data were processed using the Genedata-Screener tool. Relative IC50 values were determined using luminescence units by calculating percent inhibition with respect to the in-plate “MIN” (GDC-0032 reference control) and “MAX” (DMSO) controls. The data was analyzed using a 4-parameter nonlinear logistic equation (four-parameter logistic concentration-response curve):
Y=bottom+[(top−bottom)/1+(X/IC50)slope]
where Y=% inhibition, X=concentration of inhibitor, bottom=minimum value of y attained by curve-fit, top=maximum value of y attained by curve-fit and slope=steepness of curve at the IC50.
% Inhibition=[(signal at X−median Min)/(median Max−median Min)]×100
IC50: concentration of compound that reduces a given response (ligand binding, enzyme response) by 50%. Relative IC50: concentration giving half the compound's maximum response.
`Cc1cc([C@@H](C)Nc2cccnc2-c2n[nH]c(=O)[nH]2)c2oc(-c3ccccc3)c(C)c(=O)c2c1` [Example 63A, 3-[3-[[(1R)-1-(3,6-Dimethyl-4-oxo-2-phenyl-chromen-8-yl)ethyl]amino]-2-pyridyl]-1,4-dihydro-1,2,4-triazol-5-one] showed a pIC50 greater than 6.30. Work on `CNC(=O)c1ccccc1N[C@H](C)c1cc(C)cc2c(=O)c(C)c(-c3cccnc3)oc12` [Example 83A, 2-[[(1R)-1-[3,6-Dimethyl-4-oxo-2-(3-pyridyl)chromen-8-yl]ethyl]amino]-N-methyl-benzamide] yielded a pIC50 greater than 6.30. In the case of `CNC(=O)c1ccccc1N[C@H](C)c1cc(C)cc2c(=O)c(C)c(-c3ccc4nn(C)cc4c3)oc12` [Example 84A], the pIC50 was greater than 6.30.

Reference: patent US20240018115A1, “ALLOSTERIC CHROMENONE INHIBITORS OF PHOSPHOINOSITIDE 3-KINASE (PI3K) FOR THE TREATMENT OF DISEASE” (Petra Pharma Corporation, priority 2022, published 2024)
